The source of these data is ChEMBL document CHEMBL5442334, “ASAP - In vitro safety pharmacology profile” (2024).

The structures appear in SMILES notation.

Holding throughout (conditions): Test compound concentration 10.0 uM
In test [1] the target is T1, Cholecystokinin receptor type A (Homo sapiens) (UniProt P32238).
T1 sequence (whole entry): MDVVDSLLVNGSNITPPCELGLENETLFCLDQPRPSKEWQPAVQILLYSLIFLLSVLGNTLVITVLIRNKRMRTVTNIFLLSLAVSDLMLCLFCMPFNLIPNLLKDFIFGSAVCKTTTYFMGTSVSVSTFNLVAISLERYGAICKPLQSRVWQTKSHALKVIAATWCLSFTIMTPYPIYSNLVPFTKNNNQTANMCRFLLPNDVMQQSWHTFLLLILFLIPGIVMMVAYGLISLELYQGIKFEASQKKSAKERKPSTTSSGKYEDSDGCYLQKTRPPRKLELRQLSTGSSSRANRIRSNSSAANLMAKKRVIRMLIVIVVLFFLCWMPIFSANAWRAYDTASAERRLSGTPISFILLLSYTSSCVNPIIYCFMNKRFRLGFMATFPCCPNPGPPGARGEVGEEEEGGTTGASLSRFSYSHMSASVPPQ
The test is described as follows: SafetyScreen: CCK1 (CCKA) Human Cholecystokinin GPCR Binding Agonist Radioligand LeadHunter Assay, catalogue number: 39.

The target in test [2] is Acetylcholinesterase (Homo sapiens) (UniProt P22303). The test is described as follows: SafetyScreen: Acetylcholinesterase Human Enzymatic LeadHunter Assay, catalogue number: 363. The format is functional.
In test [3] the target is 5-hydroxytryptamine receptor 2A (Homo sapiens) (UniProt P28223). Put plainly: SafetyScreen: 5-HT2A Human Serotonin GPCR Binding Agonist Radioligand LeadHunter Assay, catalogue number: 471.
The target of test [4] is Beta-1 adrenergic receptor (Homo sapiens) (UniProt P08588). The test is described as follows: SafetyScreen: beta1 Human Adrenoceptor GPCR Binding Agonist Radioligand LeadHunter Assay, catalogue number: 18.
For test [5], the target named is Histamine H1 receptor (Homo sapiens) (UniProt P35367). The test is described as follows: SafetyScreen: H1 Human Histamine GPCR Binding Antagonist Radioligand LeadHunter Assay, catalogue number: 870.
Test [6] has as its target Sodium-dependent serotonin transporter (Homo sapiens) (UniProt P31645). Put plainly: SafetyScreen: SERT Human Serotonin Transporter Binding Antagonist Radioligand LeadHunter Assay, catalogue number: 439.
For test [7], the target named is 5-hydroxytryptamine receptor 1B (Homo sapiens) (UniProt P28222). Put plainly: SafetyScreen: 5-HT1B Human Serotonin GPCR Binding Antagonist Radioligand LeadHunter Assay, catalogue number: 4376.
The target of test [8] is Adenosine receptor A2a (Homo sapiens) (UniProt P29274). The test is described as follows: SafetyScreen: A2A Human Adenosine GPCR Binding Agonist Radioligand LeadHunter Assay, catalogue number: 4.
For test [9], the target named is Cannabinoid receptor 2 (Homo sapiens) (UniProt P34972). The test is described as follows: SafetyScreen: CB2 Human Cannabinoid GPCR Binding Agonist Radioligand LeadHunter Assay, catalogue number: 37.
Test [10] addresses Tyrosine-protein kinase Lck (Homo sapiens) (UniProt P06239). The test is described as follows: SafetyScreen: Lck Human TK Kinase Enzymatic TR-FRET [Km ATP] LeadHunter Assay, catalogue number: 2906. The format is functional. A general note: Time-resolved FRET reads energy transfer from a long-lived donor to a nearby acceptor.
The target in test [11] is 5-hydroxytryptamine receptor 2B (Homo sapiens) (UniProt P41595). The test is described as follows: SafetyScreen: 5-HT2B Human Serotonin GPCR [125I](±)DOI Binding Agonist Radioligand LeadHunter Assay, catalogue number: 1333.
Test [12] concerns the target T2, Muscarinic acetylcholine receptor M1 (Homo sapiens) (UniProt P11229).
T2 sequence (whole entry): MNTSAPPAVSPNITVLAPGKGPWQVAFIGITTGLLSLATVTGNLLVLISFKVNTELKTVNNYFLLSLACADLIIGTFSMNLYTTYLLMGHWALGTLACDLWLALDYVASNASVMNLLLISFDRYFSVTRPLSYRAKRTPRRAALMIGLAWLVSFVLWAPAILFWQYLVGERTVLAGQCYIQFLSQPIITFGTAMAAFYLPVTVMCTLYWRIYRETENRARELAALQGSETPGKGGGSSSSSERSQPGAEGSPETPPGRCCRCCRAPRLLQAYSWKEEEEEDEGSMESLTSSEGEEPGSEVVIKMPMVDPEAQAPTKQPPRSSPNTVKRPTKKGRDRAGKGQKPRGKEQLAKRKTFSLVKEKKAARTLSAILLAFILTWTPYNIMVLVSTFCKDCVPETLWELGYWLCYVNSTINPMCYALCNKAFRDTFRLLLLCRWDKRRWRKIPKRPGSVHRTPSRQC
The test is described as follows: SafetyScreen: M1 Human Acetylcholine (Muscarinic) GPCR Binding Antagonist Radioligand LeadHunter Assay, catalogue number: 91.

Test [13] deals with D(1A) dopamine receptor (Homo sapiens) (UniProt P21728). The test is described as follows: SafetyScreen: D1 Human Dopamine GPCR Binding Antagonist Radioligand LeadHunter Assay, catalogue number: 44.
The target of test [14] is Histamine H2 receptor (Homo sapiens) (UniProt P25021). Put plainly: SafetyScreen: H2 Human Histamine GPCR Binding Antagonist Radioligand LeadHunter Assay, catalogue number: 1208.
Sequence of Histamine H2 receptor (Homo sapiens) (P25021 whole entry): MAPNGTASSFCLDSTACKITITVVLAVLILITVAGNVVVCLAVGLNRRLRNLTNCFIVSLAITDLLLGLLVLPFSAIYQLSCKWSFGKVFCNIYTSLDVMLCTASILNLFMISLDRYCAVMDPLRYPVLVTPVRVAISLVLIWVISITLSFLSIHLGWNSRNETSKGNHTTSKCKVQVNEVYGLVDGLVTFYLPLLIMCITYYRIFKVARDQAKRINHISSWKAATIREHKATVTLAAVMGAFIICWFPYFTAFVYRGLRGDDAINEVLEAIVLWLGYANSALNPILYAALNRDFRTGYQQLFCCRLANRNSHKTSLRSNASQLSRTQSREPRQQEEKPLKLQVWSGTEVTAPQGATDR

Sequence of Tyrosine-protein kinase Lck (Homo sapiens) (P06239 2-509 limits assumed): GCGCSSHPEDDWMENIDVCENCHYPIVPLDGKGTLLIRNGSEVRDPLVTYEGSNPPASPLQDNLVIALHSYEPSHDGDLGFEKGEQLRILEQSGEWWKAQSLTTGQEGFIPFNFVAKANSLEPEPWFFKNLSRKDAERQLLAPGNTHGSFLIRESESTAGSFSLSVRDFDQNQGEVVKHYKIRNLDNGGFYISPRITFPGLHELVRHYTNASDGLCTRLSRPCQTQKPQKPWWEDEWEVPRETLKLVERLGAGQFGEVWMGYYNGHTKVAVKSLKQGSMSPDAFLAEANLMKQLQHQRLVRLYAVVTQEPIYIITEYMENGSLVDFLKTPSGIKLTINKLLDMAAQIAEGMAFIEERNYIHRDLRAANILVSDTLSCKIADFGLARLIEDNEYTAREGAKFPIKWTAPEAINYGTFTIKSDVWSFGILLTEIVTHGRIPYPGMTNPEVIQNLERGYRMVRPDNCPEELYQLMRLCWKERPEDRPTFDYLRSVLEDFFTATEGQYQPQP
Sequence of D(1A) dopamine receptor (Homo sapiens) (P21728 whole entry): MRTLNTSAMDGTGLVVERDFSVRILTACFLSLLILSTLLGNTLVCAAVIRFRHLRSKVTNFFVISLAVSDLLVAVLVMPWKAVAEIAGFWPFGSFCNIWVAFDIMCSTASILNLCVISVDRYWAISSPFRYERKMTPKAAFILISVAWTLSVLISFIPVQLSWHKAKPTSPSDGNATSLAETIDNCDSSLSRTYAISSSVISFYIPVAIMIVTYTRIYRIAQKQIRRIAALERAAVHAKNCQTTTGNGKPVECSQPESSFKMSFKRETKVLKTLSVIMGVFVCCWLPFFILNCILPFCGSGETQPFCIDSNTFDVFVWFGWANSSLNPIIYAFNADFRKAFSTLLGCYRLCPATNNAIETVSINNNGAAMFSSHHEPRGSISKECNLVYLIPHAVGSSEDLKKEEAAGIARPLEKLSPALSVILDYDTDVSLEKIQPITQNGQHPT
Sequence of Beta-1 adrenergic receptor (Homo sapiens) (P08588 whole entry, looked up): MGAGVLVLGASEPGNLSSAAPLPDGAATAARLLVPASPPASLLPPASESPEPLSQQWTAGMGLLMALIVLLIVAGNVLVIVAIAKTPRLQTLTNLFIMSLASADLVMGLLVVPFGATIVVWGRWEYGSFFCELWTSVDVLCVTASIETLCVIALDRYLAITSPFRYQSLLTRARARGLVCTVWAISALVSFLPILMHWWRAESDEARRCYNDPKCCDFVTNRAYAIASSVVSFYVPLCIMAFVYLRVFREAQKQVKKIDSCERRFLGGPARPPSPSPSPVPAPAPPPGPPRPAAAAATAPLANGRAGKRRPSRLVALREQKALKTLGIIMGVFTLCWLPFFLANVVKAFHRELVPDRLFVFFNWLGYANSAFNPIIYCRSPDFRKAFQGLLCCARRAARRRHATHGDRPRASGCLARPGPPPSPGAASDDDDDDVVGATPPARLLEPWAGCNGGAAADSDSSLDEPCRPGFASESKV
Sequence of Sodium-dependent serotonin transporter (Homo sapiens) (P31645 whole entry, looked up): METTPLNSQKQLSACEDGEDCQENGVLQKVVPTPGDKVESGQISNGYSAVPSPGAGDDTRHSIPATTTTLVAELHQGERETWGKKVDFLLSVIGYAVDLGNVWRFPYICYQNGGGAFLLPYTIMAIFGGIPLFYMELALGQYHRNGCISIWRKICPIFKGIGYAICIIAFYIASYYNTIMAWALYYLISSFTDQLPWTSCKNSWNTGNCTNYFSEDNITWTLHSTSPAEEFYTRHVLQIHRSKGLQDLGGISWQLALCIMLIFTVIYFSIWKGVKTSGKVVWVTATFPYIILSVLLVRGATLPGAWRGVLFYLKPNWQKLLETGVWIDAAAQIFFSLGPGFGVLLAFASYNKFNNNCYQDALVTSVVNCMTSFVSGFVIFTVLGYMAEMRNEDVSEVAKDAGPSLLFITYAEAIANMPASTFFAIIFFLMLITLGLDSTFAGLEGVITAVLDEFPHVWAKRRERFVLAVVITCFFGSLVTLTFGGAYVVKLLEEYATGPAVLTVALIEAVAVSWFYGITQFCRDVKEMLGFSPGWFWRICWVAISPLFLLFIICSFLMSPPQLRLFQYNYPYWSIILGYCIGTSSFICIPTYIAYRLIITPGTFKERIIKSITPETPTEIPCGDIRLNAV
Sequence of Adenosine receptor A2a (Homo sapiens) (P29274 whole entry): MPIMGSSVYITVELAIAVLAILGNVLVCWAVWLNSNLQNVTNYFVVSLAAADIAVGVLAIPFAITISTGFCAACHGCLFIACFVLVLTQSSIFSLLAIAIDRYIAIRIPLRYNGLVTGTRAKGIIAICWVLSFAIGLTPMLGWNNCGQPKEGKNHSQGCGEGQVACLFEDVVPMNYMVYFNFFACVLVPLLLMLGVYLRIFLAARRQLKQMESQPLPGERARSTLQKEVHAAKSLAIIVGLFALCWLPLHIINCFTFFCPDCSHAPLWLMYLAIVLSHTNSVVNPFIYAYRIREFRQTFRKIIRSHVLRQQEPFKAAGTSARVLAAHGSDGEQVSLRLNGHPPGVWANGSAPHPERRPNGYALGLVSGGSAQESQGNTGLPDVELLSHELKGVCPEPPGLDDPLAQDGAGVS
Sequence of Acetylcholinesterase (Homo sapiens) (P22303 whole entry): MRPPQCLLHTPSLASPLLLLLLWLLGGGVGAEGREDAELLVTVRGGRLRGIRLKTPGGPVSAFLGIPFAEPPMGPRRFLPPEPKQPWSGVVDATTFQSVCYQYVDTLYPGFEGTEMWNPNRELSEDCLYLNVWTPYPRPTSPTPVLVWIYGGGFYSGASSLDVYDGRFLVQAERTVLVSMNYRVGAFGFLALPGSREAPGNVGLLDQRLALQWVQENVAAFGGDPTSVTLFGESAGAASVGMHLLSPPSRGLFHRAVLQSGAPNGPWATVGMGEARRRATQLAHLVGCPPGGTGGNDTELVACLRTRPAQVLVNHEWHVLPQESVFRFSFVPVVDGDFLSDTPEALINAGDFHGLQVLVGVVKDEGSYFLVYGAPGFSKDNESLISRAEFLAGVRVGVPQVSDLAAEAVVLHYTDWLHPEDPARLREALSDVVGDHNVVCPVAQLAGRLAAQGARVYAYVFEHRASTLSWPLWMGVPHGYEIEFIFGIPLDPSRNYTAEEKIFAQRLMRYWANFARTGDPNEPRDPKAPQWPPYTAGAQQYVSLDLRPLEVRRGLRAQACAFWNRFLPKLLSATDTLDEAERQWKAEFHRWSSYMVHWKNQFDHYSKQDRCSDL
Sequence of Cannabinoid receptor 2 (Homo sapiens) (P34972 whole entry): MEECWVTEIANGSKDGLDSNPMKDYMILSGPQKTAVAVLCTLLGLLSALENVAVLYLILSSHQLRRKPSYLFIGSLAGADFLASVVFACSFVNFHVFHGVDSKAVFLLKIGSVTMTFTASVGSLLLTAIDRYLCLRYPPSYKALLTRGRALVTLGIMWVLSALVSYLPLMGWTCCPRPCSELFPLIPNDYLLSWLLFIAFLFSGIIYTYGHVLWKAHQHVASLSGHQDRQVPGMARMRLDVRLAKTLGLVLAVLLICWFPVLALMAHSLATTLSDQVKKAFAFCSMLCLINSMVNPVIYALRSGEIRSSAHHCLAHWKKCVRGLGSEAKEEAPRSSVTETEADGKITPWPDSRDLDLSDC
Sequence of 5-hydroxytryptamine receptor 2A (Homo sapiens) (P28223 whole entry): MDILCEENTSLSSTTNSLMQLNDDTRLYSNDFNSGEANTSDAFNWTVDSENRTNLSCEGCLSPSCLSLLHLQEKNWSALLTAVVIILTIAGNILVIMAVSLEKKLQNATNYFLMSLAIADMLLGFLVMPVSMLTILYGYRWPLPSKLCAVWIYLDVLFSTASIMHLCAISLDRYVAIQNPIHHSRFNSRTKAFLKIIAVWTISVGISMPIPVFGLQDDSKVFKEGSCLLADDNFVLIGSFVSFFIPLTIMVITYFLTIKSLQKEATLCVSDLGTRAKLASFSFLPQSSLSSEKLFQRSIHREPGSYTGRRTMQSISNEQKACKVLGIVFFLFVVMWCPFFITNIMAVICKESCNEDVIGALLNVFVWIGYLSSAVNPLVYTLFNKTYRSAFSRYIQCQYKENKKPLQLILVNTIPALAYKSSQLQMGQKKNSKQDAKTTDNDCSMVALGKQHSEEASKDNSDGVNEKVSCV
Sequence of Histamine H1 receptor (Homo sapiens) (P35367 whole entry): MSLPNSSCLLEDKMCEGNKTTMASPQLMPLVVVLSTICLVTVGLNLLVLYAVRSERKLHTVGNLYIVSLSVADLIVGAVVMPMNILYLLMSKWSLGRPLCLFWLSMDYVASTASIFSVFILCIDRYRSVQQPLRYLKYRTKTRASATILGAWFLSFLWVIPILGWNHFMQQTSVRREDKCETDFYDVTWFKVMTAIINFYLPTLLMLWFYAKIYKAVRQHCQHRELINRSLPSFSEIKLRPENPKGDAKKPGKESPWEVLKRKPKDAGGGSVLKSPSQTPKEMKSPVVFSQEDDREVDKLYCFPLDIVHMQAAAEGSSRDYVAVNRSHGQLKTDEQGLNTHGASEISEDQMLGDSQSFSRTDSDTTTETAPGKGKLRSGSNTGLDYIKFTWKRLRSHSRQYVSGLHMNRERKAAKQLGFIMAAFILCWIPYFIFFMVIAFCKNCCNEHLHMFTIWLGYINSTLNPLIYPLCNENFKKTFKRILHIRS

The term inhibition denotes the change of the read-out against control, counted positive when it falls. Consider `CC(C)[C@@H](Nc1ncnc2[nH]c(-c3cnn(C)c3C#N)cc12)c1ccc2c(n1)OCCO2`, for which the inhibition in [1] was 20%; in test [2], 22%; in test [3] it was 14%; in test [4], -2%; in test [5], 0%; in test [6], 9%. In addition, the inhibition in test [7] was found to be 4%; in test [8], 69%; in test [9], 16%; in test [10], 34%; in test [11] it was 40%; in test [12], 8%. Besides, in test [13], the inhibition came to 10%.
Turning to `CNCc1cc(-c2cc3c(N[C@@H](c4ccc5c(c4)S(=O)(=O)CCC5)C(C)C)ncnc3[nH]2)co1`, the inhibition in test [2] is 10%; in test [3] it was 29%; in test [4], -4%; in test [14], -3%; in test [5], -3%; in test [6] it was 24%. Also, the inhibition in [7] is 45%; in test [8] it was 21%; in [9], -8%; in test [10], 68%; in test [12], 47%; in test [13] it was 14%.
As for `COc1ccc([C@H](Cc2nnn[nH]2)NC(=O)c2ncnc3[nH]ccc23)cc1`, the inhibition is -5% in test [1]; 11% in [2]; -4% in test [3]; -3% in test [4]; -4% in test [5]; -1% in test [6]. Moreover, the inhibition in [10] was 4%; in test [12], -4%.
For the compound `Cc1nn(C)cc1-c1cc2c(N[C@H](c3ccc4c(c3)S(=O)(=O)CCC4)C(C)C)ncnc2[nH]1`, the inhibition in test [1] was -8%; in test [2], 13%; in [3], 51%; in [4] it was 1%; in test [14] it was -4%; in test [5], 0%. For the same compound, the inhibition in [6] was -4%; in [7] it was 15%; in test [8] it was 13%; in [9] it was -8%; in test [10] it was 33%; in test [11] it was 43%. The inhibition in [12] is 11%; in [13], 3%.
`CC(C)[C@H](Nc1ncnc2[nH]c(-c3cnn(C)c3C#N)cc12)c1ccc2c(n1)OCCO2`: the inhibition in [1] stood at 1%; in test [2], 15%; in test [3], 15%; in test [4], 11%; in [5], 5%; in [6], 4%. For the same compound, the inhibition in test [8] was determined as 84%; in test [9] it was 44%; in [10] it was 20%; in test [11] it was 18%; in [12], 7%; in [13], 27%.
Consider `C[C@H](C(=O)O)[C@@H](NC(=O)c1ncnc2[nH]ccc12)c1ccc(Br)cc1`, for which the inhibition in [1] was 6%; in [2], 12%; in [3], 1%; in [4], -5%; in [5], -8%; in test [6] it was 0%. The inhibition in test [7] was 1%; in test [9], -5%; in [10], 4%; in [11], -4%; in test [12], -1%; in test [13], -8%.
Turning to `Cn1ncc(-c2cc3c(N[C@@H](c4ccc5c(n4)OCCO5)C(C)(C)C)ncnc3[nH]2)c1C#N`, the inhibition in test [1] was 4%; in test [2] it was 14%; in test [3] it was -2%; in test [4], 11%; in [14] it was -10%; in test [5] it was 7%. For the same compound, the inhibition in test [6] is 2%; in test [7], 18%; in test [8], 52%; in test [9] it was 31%; in test [10] it was 47%; in test [11], -5%. The inhibition in test [12] was 13%; in test [13], 9%.
With `CC(C)[C@@H](Nc1ncnc2[nH]c(C(=O)N[C@@H]3CCN(C)C3)cc12)c1ccc2c(c1)S(=O)(=O)CCC2`, the inhibition in [1] was 7%; in [2], 28%; in test [3] it was 1%; in test [4], 4%; in test [14], -9%; in test [5], 2%. Besides, the inhibition in test [6] was 1%; in [7] it was 17%; in test [8], -4%; in test [9], -8%; in [10], 15%; in [11], 6%. In addition, the inhibition in test [12] is 17%; in test [13] it was -3%.
On to `CNC(=O)Cn1cc(-c2cc3c(N[C@@H](c4ccc5c(c4)S(=O)(=O)CCC5)C(C)C)ncnc3[nH]2)cn1`, for which the inhibition is -4% in test [1]; 13% in test [2]; 12% in [3]; 5% in [4]; -5% in test [5]; -3% in test [6]. Also, the inhibition was 0% in [7]; 23% in test [8]; 30% in test [10]; 25% in test [11]; 9% in [12]; 1% in test [13].
Turning to `CC(C)[C@H](Nc1ncnc2[nH]ccc12)c1ccc2c(c1)S(=O)(=O)CCC2`, the inhibition is -2% in test [1]; 12% in [2]; 12% in [3]; 11% in [4]; -6% in test [14]; -3% in test [5]. The inhibition in test [6] was 0%; in [7], 0%; in test [8], 11%; in test [10] it was 10%; in test [11] it was 54%; in test [12], 19%. In addition, the inhibition in test [13] is -4%.
